Data published in patent US8409550B2, “Method for treating skin with retinoids and retinoid boosters” (Unilever Home & Personal Care, USA, Division of Conopco, …, priority 2000, dated 2013).
pIC50: −log10 of the molar value. Values joined by “and” are separate entries in the source; they are usually repeats but may differ in a detail not shown here. Equal entries are not always repeated. Where two headings read alike, the source gives them in different places. Values belong to the molecule of their own block, whether it stands above or below them.

Key:
[1] = tested on: transglutaminase (TGase I); experiment: Transglutaminase (Tgase) ELISA assay in cultured keratinocytes with retinol and boosters; type: cell-based, human; settings: for TG as % C Compd 2 / TG as % C, Compd 3 / TG as % C Compd 1: concentration one log below IC20; for TG as % C, Compd 3: Compound 3 alone; for IC20: IC20 (80% of control)
[2] = biological target: T1, LRAT (Bos taurus, UniProt Q9BGL2); experiment: Assay for LRAT activity, bovine RPE microsomes (to identify B1); type: biochemical
T1 construct: followed by approximately 15 μg of RPE microsomal protein; tissue W. L. Lawson Co., Lincoln, Nebr., USA (eyecups); host or cells: bovine retinal pigment epithelium microsomes
T1 sequence (Q9BGL2 1-230): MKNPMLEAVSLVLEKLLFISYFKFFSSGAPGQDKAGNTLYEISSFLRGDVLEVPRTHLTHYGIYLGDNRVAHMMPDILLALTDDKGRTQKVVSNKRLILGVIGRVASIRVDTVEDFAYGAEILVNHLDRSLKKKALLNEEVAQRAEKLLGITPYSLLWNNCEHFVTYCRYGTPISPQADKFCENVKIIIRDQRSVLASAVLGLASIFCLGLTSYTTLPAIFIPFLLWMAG

[3] = tested on: ARAT; experiment: Assay for ARAT activity, bovine RPE microsomes (to identify B1); type: biochemical; settings: for % Inhibition ARAT (100 jm): compound 100 jm
[4] = Compound 2 alone, in the presence of 10^-7M retinol
[5] = in the presence of 10^-7M retinol
[6] = B5 table, with 10^−7 M retinol, read-out: Overall TG (IC 50)
[7] = compound tested individually in the presence of 10^-7 M retinol
[8] = Tgase inhibition, compound tested individually in the presence of 10^-7 M retinol, read-out: IC50
[9] = Compound 1 alone, in the presence of 10^-7M retinol

Molecule: Nn1nnc2ccccc21
TG as % C Compd 2 [1, 4]: 105 % C | TG as % C, Compd 3 [1, 5]: 105 % C | TG as % C Compd 2 ([1]; compound 2 alone, with retinol): 105 % C and 126 % C | TG as % C Compd 2 ([1]; compound 2 alone, with retinol, listed as Aminobenzotriazole): 98 % C

TG as % C Compd 2 ([1]; compound 2 alone, with retinol): 102 % C
Molecule: O=C1CCc2ccccc2N1 [3,4-dihydro-2 quinolinone, 3,4,-Dihydro-2(1H)-quinolinone(Hydrocarbostyril)]

% Inhibition LRAT (100 jm) ([2]; compound 100 jm): 37%
Molecule: CC(=O)/C=C/C=C(\C)CCC=C(C)C [Pseudoionone]

Molecule: CC(=O)c1cc2c(cc1C)C(C)(C)C(C)CC2(C)C (stereo not shown) [Tonalid]
% Inhibition ARAT (100 jm) [3]: 50%

Molecule: Oc1ccc2ccccc2n1 [Hydroxyquinoline (Carbostyril), 2-Hydroxyquinoline(Carbostyril)]
pIC50 [1, 6]: 3.44 | TG as % C, Compd 3 [1, 5]: 95 % C | IC20 [1, 7]: 170 µM | pIC50 [1, 8]: 3.44

Molecule: CC(C)=CCCC(C)=CC=O [Citral]
% Inhibition ARAT (100 jm) [3]: 20%

Molecule: CCCCCCCCCCCC1=NCCN1CCO [Lauryl Hydroxyethylimidazoline]
pIC50 [1, 6]: 6.33 | TG as % C, Compd 3 [1, 5]: 52 % C | IC20 [1, 7]: 0.269 µM | pIC50 [1, 8]: 6.33 | TG as % C Compd 2 ([1]; compound 2 alone, with retinol): 73 % C | TG as % C Compd 2 ([1]; compound 2 alone, with retinol, listed as Lauryl hydorxyimidazoline): 106 % C | TG as % C Compd 2 ([1]; compound 2 alone, with retinol, listed as Lauryl hydroxyethylimiazoline): 98 % C

Molecule: CCCCCCCCCCCC(=O)N(C)CC(=O)O [Lauroyl Sarcosine]
% Inhibition ARAT (100 jm) [3]: 20%

% Inhibition LRAT (100 jm) ([2]; compound 100 jm): 33%
Molecule: CCCC(O)CCC1C(C)CCCC1(C)C (stereo not shown) [Timberol]

Molecule: CC(C)=CCC/C(C)=C/CC/C(C)=C/CC/C(C)=C/CO [Geranyl Geraniol]
% Inhibition ARAT (10 jm) ([3]; compound 10 jm): 38% +/− 12 | % Inhibition ARAT (100 jm) [3]: 81% +/− 6

Molecule: CC/C=C\C/C=C\C/C=C\CCCCCCCC(=O)O [Linolenic Acid]
TG as % C, Compd 3 [1, 5]: 208 % C | IC20 [1, 7]: 121 µM

TG as % C, Compd 3 [1, 5]: 89 % C
Molecule: C/C=C\C(=O)C1C(C)=CCCC1(C)C (stereo not shown) [a-Damascone]

pIC50 [1, 8]: 3.89
Molecule: O=C(O)CCCCCCCCCCCCCCC(=O)O [Hexadecanedioic Acid]
TG as % C Compd 2 [1, 4]: 90 % C | IC20 [1, 7]: 84 µM | TG as % C Compd 2 ([1]; compound 2 alone, with retinol): 125 % C

inhibition at 100 µM ([2]; compound 100 jm): 0%
Molecule: C=CC(C)(O)CCC=C(C)C (stereo not shown) [Linalool]

Molecule: CCCCCCCCCCCCCCCCC(O)C(=O)O (stereo not shown) [2-hydroxysteric acid, 2-Hydroxystearic acid]
TG as % C Compd 2 [1, 4]: 83 % C | TG as % C Compd 1 ([1]; compound 1 alone, with retinol): 92 % C

pIC50 [1, 8]: 4.19
Molecule: CCCCCCCC/C=C/CCCCCCCC(=O)O [Elaidic Acid]
TG as % C Compd 1 [1, 9]: 93 % C | TG as % C, Compd 3 [1, 5]: 93 % C | IC20 [1, 7]: 58.8 µM | TG as % C Compd 2 ([1]; compound 2 alone, with retinol): 144 % C

Molecule: CC(=O)c1cc2c(cc1C)C(C)(C)[C@H](C)[C@H]2C(C)C [Traseolide]
% Inhibition ARAT (100 jm) [3]: 41%

Molecule: CCCCC/C=C\C/C=C\CCCCCCCC(=O)NCCO [Linoleoyl Monoethanolamide (LAMEA)]
TG as % C, Compd 3 [1, 5]: 127 % C

Molecule: CC(C)CCCCCCCCCCCCCCC(=O)O [Isostearic Acid]
TG as % C Compd 2 [1, 4]: 87 % C | IC20 [1, 7]: 62.3 µM | TG as % C Compd 2 ([1]; compound 2 alone, with retinol): 146 % C

% Inhibition LRAT (10 jm) ([2]; compound 10 jm): 64% | % Inhibition LRAT (100 jm) ([2]; compound 100 jm): 95%
Molecule: Delta-Damascone

Molecule: CC(C)(O)CCCC1=CCC(C=O)CC1 (stereo not shown) [Lyral]
TG as % C Compd 1 [1, 9]: 97 % C | IC20 [1, 7]: 40 µM | TG as % C Compd 1 ([1]; compound 1 alone, with retinol): 120 % C | % Inhibition ARAT (100 jm) [3]: 76%

% Inhibition Overall TG (—ROH/RE) ([1]; % (booster+retinol inhibition/control inhibition) − % (ROH inhibition/control inhibition)): 22% | TG as % C Compd 1 ([1]; compound 1 alone, with retinol): 99 % C
Molecule: Dimethyl Imidazolidinone

TG as % C, Compd 3 [1, 5]: 89 % C
Molecule: […]-Damascone

% Inhibition LRAT (100 jm) ([2]; compound 100 jm): 49%
Molecule: Ethyl Saffranate

pIC50 ([1]; Homo sapiens, Keratinocyte, B4 table, with 10^−7 M retinol, read-out: Overall TG (IC 50)): 4.54
Molecule: CCCCCCC(O)CCCCCCCCCCC(=O)O (stereo not shown) [12-Hydroxystearic Acid]
TG as % C, Compd 3 [1, 5]: 95 % C | IC20 [1, 7]: 14.5 µM

Molecule: Coco Trimethyl-ammonium Cl—
% Inhibition ARAT (100 jm) [3]: 27%

Molecule: Alpha-Ionone
pIC50 ([1]; B1 table, booster concentration which with 10^−7 M retinol inhibits TGase by 50%, same values in the 19th table (Molar), read-out: Overall TG (IC 50)): 3.03 | IC20 [1, 7]: 142 µM | pIC50 [1, 8]: 3.03 | TG as % C Compd 1 ([1]; compound 1 alone, with retinol): 101 % C
